Reference: ChEMBL document CHEMBL5046268, “Synthesis, Biological Evaluation, and Molecular Modeling Studies of 3,4-Diarylpyrazoline Series of Compounds as Potent, Nonbrain Penetrant Antagonists of Cannabinoid-1 (CB1R) Receptor with Reduced Lipophilicity” (J Med Chem, 2022)
Calls of active or inactive are those of the source. The rule behind the calls is not given here.

Legend:
[1] = molecular target: T1, Cannabinoid receptor 1 (Homo sapiens, UniProt P21554); assay: Displacement of [3H]- CP55940 from human CB1R expressed in CHO-K1 cells membrane by Cheng-Prusoff equation analysis; assay type: cell membranes, Cell membrane; conditions: read-out: Ki
T1 sequence (P21554 whole entry): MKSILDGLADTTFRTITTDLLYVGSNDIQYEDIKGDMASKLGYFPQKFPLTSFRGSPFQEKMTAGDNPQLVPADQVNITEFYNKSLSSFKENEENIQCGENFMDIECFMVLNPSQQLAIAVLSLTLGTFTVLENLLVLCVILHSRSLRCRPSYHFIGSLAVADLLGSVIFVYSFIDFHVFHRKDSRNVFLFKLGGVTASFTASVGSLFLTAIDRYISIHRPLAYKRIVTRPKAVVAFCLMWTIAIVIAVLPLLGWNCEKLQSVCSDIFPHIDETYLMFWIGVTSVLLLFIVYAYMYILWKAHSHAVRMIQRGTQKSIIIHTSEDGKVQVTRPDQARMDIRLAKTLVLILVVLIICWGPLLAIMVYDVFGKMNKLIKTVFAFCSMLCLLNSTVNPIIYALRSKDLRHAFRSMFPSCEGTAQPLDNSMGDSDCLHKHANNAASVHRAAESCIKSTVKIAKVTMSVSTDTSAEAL

[2] = molecular target: Cannabinoid receptor 2 (Homo sapiens, UniProt P34972); assay: Displacement of [3H]- CP55940 from human CB2R expressed in CHO-K1 cells membrane by Cheng-Prusoff equation analysis; assay type: cell membranes, Cell membrane; conditions: read-out: Ki
Cannabinoid receptor 2, sequence (P34972 whole entry): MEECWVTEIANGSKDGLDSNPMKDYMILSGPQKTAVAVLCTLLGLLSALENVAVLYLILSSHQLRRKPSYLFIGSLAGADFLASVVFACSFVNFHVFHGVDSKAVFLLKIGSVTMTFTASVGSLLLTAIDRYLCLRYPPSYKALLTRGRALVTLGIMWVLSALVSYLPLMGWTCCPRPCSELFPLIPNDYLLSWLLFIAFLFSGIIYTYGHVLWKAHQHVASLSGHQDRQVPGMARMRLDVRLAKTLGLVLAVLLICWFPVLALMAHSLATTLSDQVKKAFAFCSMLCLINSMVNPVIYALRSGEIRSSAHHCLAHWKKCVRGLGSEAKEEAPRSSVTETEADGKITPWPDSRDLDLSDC

[3] = molecular target: T1, Cannabinoid receptor 1; assay: Antagonist activity at human CB1R expressed in CHO-K1 cell membranes assessed as stimulation of [35S]-GTPgammaS binding by liquid scintillation counting method; assay type: functional, Cell membrane
[4] = molecular target: Nitric oxide synthase, inducible (Homo sapiens) (UniProt P35228); assay: Inhibition of recombinant iNOS (unknown origin) assessed as reduction in L-[3H]-citrulline level using L-[3H]-arginine as substrate at 10 uM by Enzymatic NOS activity assay
Nitric oxide synthase, inducible (Homo sapiens), sequence (P35228 whole entry): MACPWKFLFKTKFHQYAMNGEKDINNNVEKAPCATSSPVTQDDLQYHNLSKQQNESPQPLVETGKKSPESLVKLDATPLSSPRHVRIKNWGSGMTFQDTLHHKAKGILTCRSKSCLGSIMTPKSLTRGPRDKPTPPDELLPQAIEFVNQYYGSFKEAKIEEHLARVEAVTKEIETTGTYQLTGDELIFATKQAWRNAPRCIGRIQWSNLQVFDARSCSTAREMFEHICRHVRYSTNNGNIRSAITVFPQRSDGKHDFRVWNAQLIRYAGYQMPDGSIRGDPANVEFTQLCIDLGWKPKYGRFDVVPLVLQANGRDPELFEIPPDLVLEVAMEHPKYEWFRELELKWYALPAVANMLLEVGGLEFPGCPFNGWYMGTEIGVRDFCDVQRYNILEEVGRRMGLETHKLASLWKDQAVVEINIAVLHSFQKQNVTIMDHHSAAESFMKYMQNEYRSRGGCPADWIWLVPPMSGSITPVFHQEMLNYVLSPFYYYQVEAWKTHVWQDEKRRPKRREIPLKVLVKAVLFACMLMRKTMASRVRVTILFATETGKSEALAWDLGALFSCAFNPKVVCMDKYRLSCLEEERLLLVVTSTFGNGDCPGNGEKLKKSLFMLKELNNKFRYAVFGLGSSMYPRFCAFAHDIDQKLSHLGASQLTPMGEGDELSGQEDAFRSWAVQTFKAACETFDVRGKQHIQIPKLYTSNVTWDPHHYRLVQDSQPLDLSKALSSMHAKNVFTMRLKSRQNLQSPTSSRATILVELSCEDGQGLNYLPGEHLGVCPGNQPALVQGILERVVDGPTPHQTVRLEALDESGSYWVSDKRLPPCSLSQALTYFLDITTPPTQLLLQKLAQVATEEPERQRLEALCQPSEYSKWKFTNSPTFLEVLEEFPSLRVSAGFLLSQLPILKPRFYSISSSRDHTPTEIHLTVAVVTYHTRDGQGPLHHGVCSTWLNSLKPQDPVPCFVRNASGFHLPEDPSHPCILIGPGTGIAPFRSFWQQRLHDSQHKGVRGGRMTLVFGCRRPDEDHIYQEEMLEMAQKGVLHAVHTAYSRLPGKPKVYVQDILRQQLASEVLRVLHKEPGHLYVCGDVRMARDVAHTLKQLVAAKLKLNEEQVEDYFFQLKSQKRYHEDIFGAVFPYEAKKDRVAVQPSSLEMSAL

[5] = Drug distribution in C57BL/6J mouse plasma at 10 mg/kg, ip incubated for 1 hrs by LC/MS/MS analysis; assay type: ADME, organism-based; conditions: in vivo
[6] = Drug distribution in C57BL/6J mouse liver at 10 mg/kg, ip incubated for 1 hrs by LC/MS/MS analysis; assay type: ADME, organism-based; conditions: in vivo
[7] = Ratio of drug level in C57BL/6J mouse brain to plasma at 10 mg/kg, ip incubated for 1 hrs by LC/MS/MS analysis; assay type: ADME, organism-based; conditions: read-out: BPR
[8] = molecular target: T1, Cannabinoid receptor 1; assay: Inverse agonist activity at human CB1R expressed in CHO-K1 cell membrane assessed as […] in [35S]GTPgammaS binding; assay type: functional, cell membranes
[9] = Drug distribution in C57BL/6J mouse brain at 10 mg/kg, ip incubated for 1 hrs by LC/MS/MS analysis; assay type: ADME, organism-based; conditions: in vivo
[10] = Microsomal stability in human liver microsomes assessed as half life at 3 mg/kg, ip by LC-MS/MS analysis; assay type: ADME, Microsome
[11] = Protein binding in mouse plasma assessed as […] at 5 uM and incubated for 4 hrs by LC-MS/MS analysis; assay type: ADME, cell-free; conditions: read-out: PPB
[12] = Microsomal stability in C57BL/6J mouse liver microsomes assessed as half life at 3 mg/kg, ip by LC-MS/MS analysis; assay type: ADME, Microsome
[13] = Stability in C57BL/6J mouse plasma assessed as half life at 3 mg/kg, ip by LC-MS/MS analysis; assay type: ADME, organism-based
[14] = tested on: Mus musculus; assay: Anti-obesity activity in high fat diet-induced obese C57BL/6J mouse assessed as reduction in body weight at 10 mg/kg, ip measured every daily for 1 weeks; assay type: functional; conditions: 168 h
[15] = tested on: Mus musculus; assay: Anti-obesity activity in high fat diet-induced obese C57BL/6J mouse assessed as reduction in food intake at 10 mg/kg, ip measured every daily for 1 weeks; assay type: functional, organism-based
[16] = Protein binding in human plasma assessed as […] at 5 uM for 4 hrs by LC-MS/MS analysis; assay type: ADME, cell-free; conditions: read-out: PPB
[17] = tested on: Mus musculus; assay: Anti-obesity activity in high fat diet-induced obese C57BL/6J mouse assessed as reduction in body weight at 3 mg/kg, ip dosed daily for 1 week; assay type: functional; conditions: 168 h, time 1 weeks
[18] = tested on: Mus musculus; assay: Anti-obesity activity in high fat diet-induced obese C57BL/6J mouse assessed as reduction in food intake at 3 mg/kg, ip dosed daily for 1 week; assay type: functional, organism-based; conditions: time 1.0 weeks

SMILES: CCN(CC)S(=O)(=O)/N=C(/N=C(\N)c1ccc(F)cc1)N1CC(c2ccccc2)C(c2ccc(Cl)cc2)=N1 (stereo not given)
- Ki [1]: 5.5 nM
- Ki [2]: > 1000 nM
- IC50 ([3]; read-out: IC50): 108 nM
- inhibition [4]: Active

SMILES: CC(C)(C)/C(N)=N/C(=N/S(=O)(=O)N1CCOCC1)N1CC(c2ccccc2)C(c2ccc(Cl)cc2)=N1 (stereo not given)
- Ki [1]: > 100 nM
- Ki [2]: > 1000 nM
- IC50 ([3]; read-out: IC50): 34 nM

SMILES: N/C(=N\C(=N\S(=O)(=O)N1CCC(F)(F)CC1)N1CC(c2ccccc2)C(c2ccc(Cl)cc2)=N1)c1ccc(Cl)cc1 (stereo not given)
- Ki [1]: 5.5 nM
- Ki [2]: > 1000 nM
- IC50 ([3]; read-out: IC50): 4.2 nM
- Drug uptake [5]: Active
- Drug uptake [6]: Active
- Kp at 1 h [7]: 0.14
- IC50 [8]: 2.5 nM
- Drug uptake [9]: Active

SMILES: CS/C(N)=N/C(=N/S(=O)(=O)N1CCOCC1)N1CC(c2ccccc2)C(c2ccc(Cl)cc2)=N1 (stereo not given)
- Ki [1]: 41 nM
- Ki [2]: > 1000 nM
- IC50 ([3]; read-out: IC50): 91 nM

SMILES: CC(C)(C)/C(N)=N/C(=N/S(=O)(=O)N1CCCC1)N1CC(c2ccccc2)C(c2ccc(Cl)cc2)=N1 (stereo not given)
- Ki [1]: > 1000 nM
- Ki [2]: > 1000 nM
- IC50 ([3]; read-out: IC50): 61 nM
- inhibition [4]: Active

SMILES: N/C(=N/C(=N/S(=O)(=O)N1CCCCC1)N1CC(c2ccccc2)C(c2ccc(Cl)cc2)=N1)c1ccc(F)cc1 (stereo not given)
- Ki [1]: 6.4 nM
- Ki [2]: 36 nM
- IC50 ([3]; read-out: IC50): 4 nM

SMILES: CCN(CC)S(=O)(=O)/N=C(/N=C(/C)N)N1C[C@H](c2ccccc2)C(c2ccc(Cl)cc2)=N1
- half-life [10]: > 2 min
- Ki [1]: 1.2 nM
- Ki [2]: 66 nM
- IC50 ([3]; read-out: IC50): 1.2 nM
- fraction unbound at 4 h, 5 µM [11]: ≤ 0.006
- half-life [12]: > 2 min
- half-life [13]: < 120 min
- inhibition in vivo at 10 mg/kg [14]: 8%
- Activity [15]: Active
- IC50 [8]: 0.8 nM
- fraction unbound at 4 h, 5 µM [16]: ≤ 0.006

SMILES: C/C(N)=N\C(=N\S(=O)(=O)N1CCCCC1)N1C[C@H](c2ccccc2)C(c2ccc(Cl)cc2)=N1
- half-life [10]: > 2 min
- Ki [1]: 1.6 nM
- Ki [2]: 43 nM
- IC50 ([3]; read-out: IC50): 4 nM
- fraction unbound at 4 h, 5 µM [11]: ≤ 0.006
- half-life [12]: > 2 min
- half-life [13]: < 120 min
- inhibition in vivo at 3 mg/kg [17]: 8%
- Activity [18]: Active
- IC50 [8]: 2 nM
- fraction unbound at 4 h, 5 µM [16]: ≤ 0.006

SMILES: N/C(=N\C(=N\S(=O)(=O)N1CCOCC1)N1CC(c2ccccc2)C(c2ccc(Cl)cc2)=N1)c1ccc(Cl)cc1 (stereo not given)
- Ki [1]: 19.2 nM
- Ki [2]: > 1000 nM
- IC50 ([3]; read-out: IC50): 25 nM

SMILES: CS/C(N)=N/C(=N/S(=O)(=O)N1CCC(C(F)(F)F)CC1)N1C[C@@H](c2ccccc2)C(c2ccc(Cl)cc2)=N1
- Ki [1]: > 1000 nM
- Ki [2]: > 1000 nM
- IC50 ([3]; cho-k1): Not Active

SMILES: CS/C(N)=N\C(=N\S(=O)(=O)N1CCCCC1)N1CC(c2ccccc2)C(c2ccc(Cl)cc2)=N1 (stereo not given)
- Ki [1]: 15 nM
- Ki [2]: > 100 nM
- IC50 ([3]; read-out: IC50): 166 nM

SMILES: N/C(=N\C(=N\S(=O)(=O)N1CCC(F)(F)CC1)N1CC(c2ccccc2)C(c2ccc(Cl)cc2)=N1)c1ccc(F)cc1 (stereo not given)
- Ki [1]: 3.3 nM
- Ki [2]: 28 nM
- IC50 ([3]; read-out: IC50): 4.4 nM

SMILES: CC(C)(C)/C(N)=N\C(=N\S(=O)(=O)N1CCCCC1)N1CC(c2ccccc2)C(c2ccc(Cl)cc2)=N1 (stereo not given)
- Ki [1]: 23 nM
- Ki [2]: > 1000 nM
- IC50 ([3]; read-out: IC50): 129 nM

SMILES: N/C(=N\C(=N\S(=O)(=O)N1CCCC1)N1CC(c2ccccc2)C(c2ccc(Cl)cc2)=N1)c1ccc(F)cc1 (stereo not given)
- Ki [1]: 10.5 nM
- Ki [2]: > 1000 nM
- IC50 ([3]; read-out: IC50): 115 nM
- inhibition [4]: Active

SMILES: N/C(=N\C(=N\S(=O)(=O)N1CCCC1)N1CC(c2ccccc2)C(c2ccc(Cl)cc2)=N1)c1ccc(Cl)cc1 (stereo not given)
- Ki [1]: 75.3 nM
- Ki [2]: > 1000 nM
- IC50 ([3]; read-out: IC50): 427 nM
- inhibition [4]: Active

SMILES: CC(C)(C)/C(N)=N/C(=N/S(=O)(=O)N1CCC(C(F)(F)F)CC1)N1CC(c2ccccc2)C(c2ccc(Cl)cc2)=N1 (stereo not given)
- Ki [1]: 1.1 nM
- Ki [2]: > 100 nM
- IC50 ([3]; read-out: IC50): 2 nM
- Drug uptake [5]: Active
- Drug uptake [6]: Active
- Kp at 1 h [7]: 0.15
- IC50 [8]: 1.8 nM
- Drug uptake [9]: Active

SMILES: CCN(CC)S(=O)(=O)/N=C(/N=C(\N)c1ccc(Cl)cc1)N1CC(c2ccccc2)C(c2ccc(Cl)cc2)=N1 (stereo not given)
- Ki [1]: 10.8 nM
- Ki [2]: 70 nM
- IC50 ([3]; read-out: IC50): 86 nM
- inhibition [4]: Active

SMILES: CC(C)(C)/C(N)=N/C(=N/S(=O)(=O)N1CCC(F)(F)CC1)N1CC(c2ccccc2)C(c2ccc(Cl)cc2)=N1 (stereo not given)
- Ki [1]: 21 nM
- Ki [2]: > 1000 nM
- IC50 ([3]; read-out: IC50): 10 nM
- Drug uptake [5]: Active
- Drug uptake [6]: Active
- Kp at 1 h [7]: 0.14
- IC50 [8]: 3.2 nM
- Drug uptake [9]: Active
